The assay concerns the target T1, Recombinant mouse PD-L1 (Mus musculus, UniProt Q9EP73).
T1 construct: Fc (Fc chimera); purchased R&D Systems 1019-B7-100
Put plainly: Rescue of mouse splenocyte proliferation in the presence of recombinant PD-L1 (CFSE proliferation assay). It is filed as cell-based. Conditions: 100 nM compound; anti-CD3/CD28 stimulated CFSE-labelled mouse splenocytes + PD-L1, 72 h; normalised to stimulated splenocyte proliferation as 100%; read-out: Percent rescue of proliferation (@100 nM compound concentration). The procedure: Rescue of Mouse Splenocyte Proliferation in the Presence of Recombinant PD-L1
Recombinant mouse PD-L1 (rm-PDL-1, cat no: 1019-B7-100; R&D Systems) were used as the source of PD-L1.
Mouse splenocytes harvested from 6-8 weeks old C57 BL6 mice; RPMI 1640 (GIBCO, Cat #11875); DMEM with high glucose (GIBCO, Cat #D6429); Fetal Bovine Serum └Hyclone, Cat #SH30071.03┘; Penicillin (10000 unit/mL)-Streptomycin(10,000 μg/mL) Liquid (GIBCO, Cat #15140-122); MEM Sodium Pyruvate solution 100 mM (100×), Liquid (GIBCO, Cat #11360); Nonessential amino acid (GIBCO, Cat #11140); L-Glutamine (GIBCO, Cat #25030); Anti-CD3 antibody (eBiosciences—16-0032); Anti-CD28 antibody (eBiosciences—16-0281); ACK lysis buffer (1 mL) (GIBCO, Cat #-A10492); Histopaque (density-1.083 gm/mL) (SIGMA 10831); Trypan blue solution (SIGMA-T8154); 2 mL Norm Ject Luer Lock syringe-(Sigma 2014-12); 40 μm nylon cell strainer (BD FALCON 35230); Hemacytometer (Bright line-SIGMA Z359629); FACS Buffer (PBS/0.1% BSA): Phosphate Buffered Saline (PBS) pH 7.2 (HiMedia TS1006) with 0.1% Bovine Serum Albumin (BSA) (SIGMA A7050) and sodium azide (SIGMA 08591); 5 mM stock solution of CFSE: CFSE stock solution was prepared by diluting lyophilized CFSE with 180 μL of Dimethyl sulfoxide (DMSO C2H6SO, SIGMA-D-5879) and aliquoted in to tubes for further use. Working concentrations were titrated from 10 μM to 1 μM. (eBioscience-650850-85); 0.05% Trypsin and 0.02% EDTA (SIGMA 59417C); 96-well format ELISA plates (Corning CLS3390); BD FACS caliber (E6016); Recombinant mouse B7-H1/PDL1 Fc Chimera, (rm-PD-L1 cat no: 1019-B7-100).
Splenocytes harvested in a 50 mL falcon tube by mashing mouse spleen in a 40 μm cell strainer were further treated with 1 mL ACK lysis buffer for 5 min at room temperature. After washing with 9 mL of RPMI complete media, cells were re-suspended in 3 mL of 1×PBS in a 15 mL tube. 3 mL of Histopaque was added carefully to the bottom of the tube without disturbing overlaying splenocyte suspension. After centrifuging at 800×g for 20 min at room temperature, the opaque layer of splenocytes was collected carefully without disturbing/mixing the layers. Splenocytes were washed twice with cold 1×PBS followed by total cell counting using Trypan Blue exclusion method and used further for cell based assays.
Splenocytes were cultured in RPMI complete media (RPMI+10% fetal bovine serum+1 mM sodium pyruvate+10,000 units/mL penicillin and 10,000 μg/mL streptomycin) and maintained in a CO2 incubator with 5% CO2 at 37° C.
CFSE is a dye that passively diffuses into cells and binds to intracellular proteins. 1×10^6 cells/mL of harvested splenocytes were treated with 5 μM of CFSE in pre-warmed 1×PBS/0.1% BSA solution for 10 min at 37° C. Excess CFSE was quenched using 5 volumes of ice-cold culture media to the cells and incubated on ice for 5 min CFSE labelled splenocytes were further given three washes with ice cold complete RPMI media. CFSE labelled 1×10^5 splenocytes added to wells containing either MDA-MB231 cells (1×10^5 cells cultured in high glucose DMEM medium) or recombinant human PDL-1 (100 ng/mL) and test compounds. Splenocytes were stimulated with anti-mouse CD3 and anti-mouse CD28 antibody (1 μg/mL each) and the culture was further incubated for 72 h at 37° C. with 5% CO2. Cells were harvested and washed thrice with ice cold FACS buffer and % proliferation was analysed by flow cytometry with 488 nm excitation and 521 nm emission filters.
Percent splenocyte proliferation was analysed using cell quest FACS program and percent rescue of splenocyte proliferation by compound was estimated after deduction of % background proliferation value and normalising to % stimulated splenocyte proliferation (positive control) as 100%.
Stimulated splenocytes: Splenocytes+anti-CD3/CD28 stimulation.
Background proliferation: Splenocytes+anti-CD3/CD28+PD-L1.
Compound proliferation: Splenocytes+anti-CD3/CD28+PD-L1+Compound. […]

T1 sequence (Q9EP73 with tags, fused parts or gaps limits assumed): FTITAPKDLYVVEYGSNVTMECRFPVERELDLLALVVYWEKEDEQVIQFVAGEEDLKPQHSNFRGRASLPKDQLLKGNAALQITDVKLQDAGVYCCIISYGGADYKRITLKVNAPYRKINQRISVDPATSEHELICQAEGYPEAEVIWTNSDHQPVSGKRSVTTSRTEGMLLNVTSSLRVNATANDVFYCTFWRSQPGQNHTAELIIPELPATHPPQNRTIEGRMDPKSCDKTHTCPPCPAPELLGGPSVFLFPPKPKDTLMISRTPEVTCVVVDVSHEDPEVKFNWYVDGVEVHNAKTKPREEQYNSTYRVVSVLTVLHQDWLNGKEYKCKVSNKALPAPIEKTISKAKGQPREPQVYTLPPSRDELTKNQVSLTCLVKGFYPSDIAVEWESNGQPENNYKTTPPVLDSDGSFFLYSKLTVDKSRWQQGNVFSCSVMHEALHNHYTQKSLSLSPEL

`O=C1COCCOCCNC(=O)[C@H](Cc2ccc(O)cc2)NC(=O)N2CCCC2C(=O)NNC(=O)[C@H](Cc2ccc(O)cc2)N1` (some centres unmarked) [Compound 1]: the activation at 0.1 µM stood at 76%.

Take `CC(O)[C@@H]1NC(=O)N[C@@H](CC(N)=O)C(=O)NNC(=O)[C@H](CCCCN)NC(=O)COCCOCCNC1=O` (some centres unmarked) [Compound 2]: the activation at 0.1 µM came to 57%.

`CC(O)[C@@H]1NC(=O)N[C@@H](Cc2ccccc2)C(=O)NNC(=O)[C@H](CO)NC(=O)COCCOCCNC1=O` (some centres unmarked) [Compound 3]: the activation at 0.1 µM came to 66%. The figure for `NCCCC[C@@H]1NC(=O)COCCOCCNC(=O)[C@H](CCCCN)NC(=O)N[C@@H](CCCCN)C(=O)NNC1=O` [Compound 5] is 24%; for `CC(O)[C@@H]1NC(=O)N[C@@H](CCCCN)C(=O)NNC(=O)[C@H](CO)NC(=O)COCCOCCNC1=O` (some centres unmarked) [Compound 6] it is 40%. For `CCC(C)[C@@H]1NC(=O)N[C@@H](C(C)O)C(=O)NCCOCCOCC(=O)N[C@@H](CO)C(=O)NNC1=O` (some centres unmarked) [Compound 7] the value was 23%; for `CC(O)[C@@H]1NC(=O)N[C@@H](CC(N)=O)C(=O)NNC(=O)[C@H](CC(=O)O)NC(=O)COCCOCCNC1=O` (some centres unmarked) [Compound 9], 46%. The figure for `O=C(O)C[C@@H]1NC(=O)COCCOCCNC(=O)[C@H](CC(=O)O)NC(=O)N[C@@H](CC(=O)O)C(=O)NNC1=O` [Compound 10] is 53%; for `O=C1COCCOCCNC(=O)[C@H](CO)NC(=O)N[C@@H](CO)C(=O)NNC(=O)[C@H](CO)N1` [Compound 11] it is 17%. Turning to `CC(O)[C@@H]1NC(=O)COCCOCCNC(=O)[C@H](C(C)O)NC(=O)N[C@@H](C(C)O)C(=O)NNC1=O` (some centres unmarked) [Compound 12], the activation at 0.1 µM amounted to 91%. In the case of `CC(C)C[C@@H]1NC(=O)N[C@@H](CC(N)=O)C(=O)NNC(=O)[C@H](CO)NC(=O)COCCOCCNC1=O` [Compound 13], the activation at 0.1 µM was 53%. The figure for `CCC(C)[C@@H]1NC(=O)N[C@@H](CCC(=O)O)C(=O)NCCOCCOCC(=O)N[C@@H](CCC(N)=O)C(=O)NNC1=O` (some centres unmarked) [Compound 15] is 40%; for `CC(O)[C@@H]1NC(=O)N[C@@H](Cc2ccccc2)C(=O)NNC(=O)[C@H](CCCCN)NC(=O)COCCOCCNC1=O` (some centres unmarked) [Compound 16] it is 30%; for `CCC(C)[C@@H]1NC(=O)N[C@@H](CCC(N)=O)C(=O)NCCOCCOCC(=O)N[C@@H](CCC(=O)O)C(=O)NNC1=O` (some centres unmarked) [Compound 17] it is 38%.

Source of the values: US20180044350A1, “THERAPEUTIC CYCLIC COMPOUNDS AS IMMUNOMODULATORS” (priority 2015, published 2018).
